Results from ChEMBL document CHEMBL1201862, “PubChem BioAssay data set” (2004).
The source made the active and inactive calls.

Experiments:
[1] = NIH-3T3 fibroblast cytotoxicity, dose response, cytotoxicity control, cell-based, fluorescence, Alamar Blue, secondary assay (AID 2327); type: functional;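 note: NIH-3T3 mouse fibroblasts cultured with fluconazole at 8 µg/mL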
INS1 = assay: beta cell apoptosis inhibitors, cytokine rescue, dose response, luminescence, retest (AID 449756); type: functional, cell-based; details: Rattus norvegicus;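 note: cell death triggered by IL-1 beta plus TNF-alpha plus IFN-gamma mixture; protective hits raise ATP signal compared with cytokine alone wells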
[2] = target: ATP-dependent molecular chaperone HSP82 (Candida albicans (strain WO-1) (Yeast), UniProt C4YTQ8); assay: loss of DOC-induced GRE-beta-galactosidase reporter signal, dose response, Hsp90 inhibitor project, S. cerevisiae, luminescence (AID 2400); type: functional, cell-based;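 note: beta-galactosidase luminescence from glucocorticoid response element reporter as proxy for Hsp90 function; inhibitor potency where signal loss means Hsp90 inhibition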
ATP-dependent molecular chaperone HSP82, sequence (C4YTQ8 whole entry): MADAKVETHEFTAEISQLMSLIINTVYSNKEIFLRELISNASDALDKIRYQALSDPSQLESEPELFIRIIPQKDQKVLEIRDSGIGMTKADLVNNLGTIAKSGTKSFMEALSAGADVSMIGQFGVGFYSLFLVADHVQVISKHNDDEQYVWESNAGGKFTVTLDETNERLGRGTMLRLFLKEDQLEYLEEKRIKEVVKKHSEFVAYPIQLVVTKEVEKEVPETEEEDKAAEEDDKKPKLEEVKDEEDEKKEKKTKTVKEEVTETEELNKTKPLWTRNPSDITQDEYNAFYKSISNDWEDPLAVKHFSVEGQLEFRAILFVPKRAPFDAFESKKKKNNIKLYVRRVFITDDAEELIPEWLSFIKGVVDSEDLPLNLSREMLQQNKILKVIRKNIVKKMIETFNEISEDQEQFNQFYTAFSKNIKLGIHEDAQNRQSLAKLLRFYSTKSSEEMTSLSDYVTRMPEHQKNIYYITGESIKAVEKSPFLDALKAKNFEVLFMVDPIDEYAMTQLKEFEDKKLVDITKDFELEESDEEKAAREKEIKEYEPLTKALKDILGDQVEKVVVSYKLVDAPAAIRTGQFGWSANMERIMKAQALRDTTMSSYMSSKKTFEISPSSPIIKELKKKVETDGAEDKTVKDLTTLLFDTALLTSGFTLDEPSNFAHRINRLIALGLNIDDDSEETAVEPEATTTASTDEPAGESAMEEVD

[3] = target: Serine/threonine-protein phosphatase (Candida dubliniensis (strain CD36 / CBS 7987 / NCPF 3949 / NRRLY-17841) (Yeast), UniProt B9W6M3); assay: calcineurin pathway inhibitors in yeast reporter, dose response, S. cerevisiae, CDRE-lacZ, luminescence, secondary (AID 2388); type: functional, cell-based;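 note: yeast reporter cells carrying a calcineurin-responsive lacZ construct stimulated with calcium chloride; luminescent beta-galactosidase reporter signal in whole cells rather than isolated phosphatase activity; potency for inhibition where a drop in reporter signal means calcineurin blockade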
Serine/threonine-protein phosphatase, sequence (B9W6M3 whole entry): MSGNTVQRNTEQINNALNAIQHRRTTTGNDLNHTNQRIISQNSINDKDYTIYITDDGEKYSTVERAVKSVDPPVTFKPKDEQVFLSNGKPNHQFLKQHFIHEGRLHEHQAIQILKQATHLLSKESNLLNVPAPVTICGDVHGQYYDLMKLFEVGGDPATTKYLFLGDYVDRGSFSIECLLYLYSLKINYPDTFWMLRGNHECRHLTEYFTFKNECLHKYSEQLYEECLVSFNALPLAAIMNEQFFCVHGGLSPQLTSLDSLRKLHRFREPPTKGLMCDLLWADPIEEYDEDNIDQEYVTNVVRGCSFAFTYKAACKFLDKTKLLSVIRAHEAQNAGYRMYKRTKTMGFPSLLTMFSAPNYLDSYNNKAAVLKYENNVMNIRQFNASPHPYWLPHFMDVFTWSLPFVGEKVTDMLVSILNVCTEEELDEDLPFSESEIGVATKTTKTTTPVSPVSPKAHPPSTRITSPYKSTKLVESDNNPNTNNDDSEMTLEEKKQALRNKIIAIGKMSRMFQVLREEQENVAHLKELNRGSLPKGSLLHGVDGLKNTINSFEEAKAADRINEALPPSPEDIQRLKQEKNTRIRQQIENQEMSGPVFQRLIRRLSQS

[4] = C. albicans growth with fluconazole, confirmation, fluorescence, retest (AID 2467); type: functional, cell-based
[5] = cytotoxicity toward NIH3T3 fibroblasts, dose response, counter-screen, cell-based, ATP luminescence, mouse fibroblasts (AID 2010); type: functional;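 note: cells exposed to compound for about 90 hours before reading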
[6] = inhibitors of intracellular T. cruzi replication, confirmation, NIH3T3 host cells, beta-gal luminescence (AID 2044); type: functional, cell-based;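 note: intracellular parasites grown in NIH/3T3 mouse fibroblasts as host cells; luminescent beta-galactosidase reporter signal from transgenic T. cruzi replicating inside host cells; inhibitors lower the luminescence signal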
[7] = Fluorescence-based cell-based high throughput dose response assay for inhibitors of the interaction of nucleotide-binding oligomerization domain containing 2 (NOD2) and the receptor-interacting serine-threonine kinase 2 (RIPK2).; type: functional; details: Homo sapiens
[8] = Vero E6 cell cytotoxicity, dose response, cytotoxicity control for non-replicating M. tuberculosis project, secondary assay (AID 492998); type: functional, VeroE6; details: Vero C1008
[9] = target: T1, Heat shock factor protein 1 (Mus musculus, UniProt P38532); assay: HSF1 potentiators in luciferase reporter cells, confirmation, cell-based, NIH3T3, luminescence, dose retest (AID 435004); type: functional;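 note: stress induced by proteasome inhibitor MG132 added 30 min after compound; luciferase reporter driven by HSF1 response element in NIH3T3 cells; actives raise luminescence as potentiators of the MG132 stress response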
T1 sequence (P38532 whole entry): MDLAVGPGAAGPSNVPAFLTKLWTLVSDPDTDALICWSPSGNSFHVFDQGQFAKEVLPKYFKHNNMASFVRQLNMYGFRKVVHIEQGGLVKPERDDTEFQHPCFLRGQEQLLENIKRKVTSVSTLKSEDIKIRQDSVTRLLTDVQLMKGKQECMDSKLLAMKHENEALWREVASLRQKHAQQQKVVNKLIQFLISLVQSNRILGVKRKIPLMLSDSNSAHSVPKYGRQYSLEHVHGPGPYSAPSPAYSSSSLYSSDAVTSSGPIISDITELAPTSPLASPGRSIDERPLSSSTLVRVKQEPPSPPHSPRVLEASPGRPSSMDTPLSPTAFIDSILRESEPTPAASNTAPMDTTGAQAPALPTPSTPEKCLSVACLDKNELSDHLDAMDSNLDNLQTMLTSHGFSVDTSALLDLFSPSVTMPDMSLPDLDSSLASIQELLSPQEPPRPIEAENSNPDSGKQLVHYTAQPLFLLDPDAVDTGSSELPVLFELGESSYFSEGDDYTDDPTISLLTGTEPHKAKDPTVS

[10] = Luminescence Cell-Based Dose Retest to Confirm Inhibitors of Cancer Stem Cells. [Related pubchem assays (depositor defined):AID2717, AID2721]; type: functional; details: Homo sapiens
CHO = assay: cytotoxicity in TLR9-MyD88 CHO cells, dose response, cytotoxicity control for TLR9-MyD88 binding inhibitor project, cell-based, luminescence (AID 588339); type: functional, hamster; details: Cricetulus griseus;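 note: CHO cells stably coexpressing TLR9 and MyD88 fusions from primary screen; compound exposure lasted 48 hours before viability readout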
Beta Lactamase = Beta Lactamase (Pseudomonas aeruginosa, UniProt Q932Y6); assay: beta-lactamase reporter inhibitor potency, dose response, artefact control for TLR9-MyD88 binding inhibitor project, BLA reporter cells, FRET fluorescence (AID 588341); type: cell-based;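 note: cell based assay in CHO-K1 cells stably expressing beta-lactamase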
Beta Lactamase, sequence (Q932Y6 whole entry): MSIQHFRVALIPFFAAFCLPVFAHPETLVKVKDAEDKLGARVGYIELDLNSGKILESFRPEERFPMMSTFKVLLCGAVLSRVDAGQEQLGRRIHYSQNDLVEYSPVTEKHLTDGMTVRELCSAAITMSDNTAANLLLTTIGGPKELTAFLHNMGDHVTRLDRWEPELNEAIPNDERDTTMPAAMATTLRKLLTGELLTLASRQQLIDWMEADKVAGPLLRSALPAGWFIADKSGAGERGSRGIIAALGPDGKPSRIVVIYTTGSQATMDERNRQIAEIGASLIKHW

[11] = target: Heat shock protein HSP 90-alpha (Homo sapiens, UniProt P07900); type: functional, organism-based
[12] = THP-1 cell cytotoxicity, dose response, cytotoxicity control for non-replicating M. tuberculosis project (AID 489025); type: functional
cells = type: functional
[13] = target: T2, Endoribonuclease toxin MazF (Escherichia coli K-12, UniProt P0AE70); assay: MazF toxin RNase activators, dose response, biochemical, fluorescence, single-stranded RNA substrate, uHTS hits (AID 588481); type: functional
T2 sequence (P0AE70 whole entry): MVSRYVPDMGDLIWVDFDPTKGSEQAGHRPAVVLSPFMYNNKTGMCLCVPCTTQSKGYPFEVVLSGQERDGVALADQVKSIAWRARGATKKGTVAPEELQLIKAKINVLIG

[14] = target: T2, Endoribonuclease toxin MazF; assay: fluorescent RNA oligo signal without MazF, dose response, counter-screen for MazEF activator project, biochemical, fluorescence, single-stranded RNase substrate (AID 588502); type: functional
[15] = growth suppression of beta-catenin-knockout colon cells, dose response, cell-based, HCT116, human colon tumor (AID 1045); type: functional;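 note: HCT116 colon tumor cells with beta catenin knocked out; cells exposed to compound for 60 hours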
[16] = control 3'UTR Renilla luciferase suppression, dose response, counter-screen for Shn3 inhibitor project, cell-based, Clone20-Shn3RL, cherry-picked (AID 624133); type: functional
A-375 = assay: A375 melanoma cell viability reduction, dose response, counter-screen for MITF modulator project, cherry-pick samples, set 2 (AID 540335); type: functional, cell-based; details: Homo sapiens
Paired box protein Pax-8 = Paired box protein Pax-8 (Homo sapiens, UniProt Q06710); assay: inhibitors of PAX8-driven TPO luciferase reporter, dose response, RMG-I cells, cherry-pick (AID 687027); type: functional, cell-based;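 note: luciferase reporter driven by Pax8 target thyroperoxidase promoter measured by SteadyGlo luminescence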
Paired box protein Pax-8, sequence (Q06710 whole entry): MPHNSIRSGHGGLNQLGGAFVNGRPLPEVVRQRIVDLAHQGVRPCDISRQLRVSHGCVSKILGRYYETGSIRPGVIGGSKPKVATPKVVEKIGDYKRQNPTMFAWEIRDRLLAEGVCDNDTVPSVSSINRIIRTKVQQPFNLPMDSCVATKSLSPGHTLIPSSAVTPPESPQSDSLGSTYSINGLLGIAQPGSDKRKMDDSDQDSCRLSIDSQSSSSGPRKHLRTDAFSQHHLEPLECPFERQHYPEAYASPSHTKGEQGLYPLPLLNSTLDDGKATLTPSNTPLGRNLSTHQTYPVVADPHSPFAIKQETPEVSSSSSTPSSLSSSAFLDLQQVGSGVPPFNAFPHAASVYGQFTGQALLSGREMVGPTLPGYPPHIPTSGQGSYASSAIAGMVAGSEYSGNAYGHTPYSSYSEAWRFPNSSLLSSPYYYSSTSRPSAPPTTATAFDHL

[17] = Shn3 3'UTR reporter inhibitors, dose response, cell-based, Clone20 osteoblasts, firefly luciferase, cherry-picked (AID 624132); type: functional;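 note: firefly luciferase luminescence from reporter carrying the Shn3 3'UTR in osteoblasts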
[18] = growth suppression of PTEN-null colon cells, dose response, cell-based, HCT116 PTEN knockout (AID 1047); type: functional;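 note: HCT116 colon tumor cells with PTEN knocked out; cells exposed to compound for 60 hours before readout; potency for loss of cell viability measured by luminescence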
[19] = HepG2 cell cytotoxicity, dose response, cytotoxicity control for Shn3 inhibitor project, CellTiter-Glo, cherry-picked (AID 624134); type: functional, cell-based
[20] = target: T3, Microphthalmia-associated transcription factor (Homo sapiens, UniProt O75030); assay: TRPM1 promoter luciferase signal decrease, dose response, MITF inhibitor project, cell-based, SK-MEL-5, cherry-picked, set 3 (AID 493073); type: functional
T3 sequence (O75030 whole entry): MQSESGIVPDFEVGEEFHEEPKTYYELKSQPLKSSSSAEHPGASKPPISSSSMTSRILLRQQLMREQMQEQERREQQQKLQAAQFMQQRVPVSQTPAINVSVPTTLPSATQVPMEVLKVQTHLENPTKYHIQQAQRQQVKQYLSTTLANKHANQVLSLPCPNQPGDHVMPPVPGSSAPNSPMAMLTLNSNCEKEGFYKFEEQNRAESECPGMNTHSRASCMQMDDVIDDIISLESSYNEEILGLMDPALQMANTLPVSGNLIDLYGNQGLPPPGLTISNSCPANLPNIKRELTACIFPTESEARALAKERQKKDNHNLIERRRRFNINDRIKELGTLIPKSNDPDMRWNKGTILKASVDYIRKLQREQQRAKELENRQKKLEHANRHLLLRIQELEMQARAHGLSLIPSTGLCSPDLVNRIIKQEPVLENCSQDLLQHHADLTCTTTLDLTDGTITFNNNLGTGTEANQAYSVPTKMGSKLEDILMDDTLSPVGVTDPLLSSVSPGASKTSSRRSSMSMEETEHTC

[21] = target: FAD-linked sulfhydryl oxidase ALR (Homo sapiens, UniProt P55789); assay: inhibitors of human ALR sulfhydryl oxidase, dose response, biochemical, H2O2 detection, luminescence, cherry-pick (AID 493248)
FAD-linked sulfhydryl oxidase ALR, sequence (P55789 whole entry): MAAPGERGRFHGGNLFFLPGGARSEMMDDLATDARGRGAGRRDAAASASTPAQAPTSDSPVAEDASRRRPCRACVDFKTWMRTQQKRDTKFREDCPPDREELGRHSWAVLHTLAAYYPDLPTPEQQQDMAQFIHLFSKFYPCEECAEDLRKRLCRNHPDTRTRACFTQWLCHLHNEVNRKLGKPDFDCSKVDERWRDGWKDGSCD

[22] = HepG2 cell cytotoxicity, dose response, cytotoxicity control for non-replicating M. tuberculosis project (AID 489018); type: functional; details: Mycobacterium tuberculosis

CCCCCCOC(=O)C[N+](C)(C)CCOC1CC2CCC1(C)C2(C)C (stereo unspecified)
EC50 [1]: 23.6 µM (active) | AC50 (INS1): 4.16 µM (active) | EC50 [2]: 30.6 µM (active) | EC50 [3]: > 180 µM (inactive) | EC50 [4]: 0.456 µM (active) | EC50 [5]: > 30 µM (not active) | EC50 [6]: 0.178 µM (active)

C=CCN1C(=O)/C(=C2/C(=O)Nc3ccccc32)c2ccccc21
IC50 [7]: 2.1 µM (active) | CC50 [8]: 3.31 µM (active) | EC50 [9]: 8.91 µM (active) | AC50 [10]: 4.32 µM (active) | IC50 (CHO): 3.64 µM (active) | IC50 (Beta Lactamase): > 49.8 µM (inactive) | AC50 [11]: 1.17 µM (active) | CC50 [12]: 19.7 µM (active) | IC50 (cells): 0.4 µM (active)

CCN(CC)c1ccc(C=NNc2ccc([N+](=O)[O-])cn2)cc1
IC50 (CHO): 24.3 µM (inactive) | EC50 [13]: > 99 µM (inactive) | IC50 (Beta Lactamase): 4.5 µM (active) | EC50 [14]: 70.2 µM (inactive)

O=C(c1ccccc1)C(CN1CCCC1)c1ccccc1 (stereo unspecified)
EC50 [15]: 1.88 µM (active) | AC50 [16]: 6.34 µM (active) | AC50 (A-375): 25.2 µM (active) | AC50 (Paired box protein Pax-8): 4.88 µM (active) | AC50 [17]: 10.7 µM (active) | EC50 [1]: > 160 µM (inactive) | AC50 (INS1): 4.07 µM (active) | CC50 [8]: 9.26 µM (active) | EC50 [18]: 2.82 µM (active) | AC50 [19]: 17.4 µM (active) | AC50 [20]: 5.33 µM (active) | AC50 [21]: 3.73 µM (active) | EC50 [4]: 0.292 µM (active) | CC50 [12]: 9.86 µM (active) | IC50 (cells): 8.41 µM (active) | CC50 [22]: 14.7 µM (active)
